Reference: patent US8557797B2, “Triazolopyridine derivatives and their therapeutic use” (Chiesi Farmaceutici S.p.A., priority 2009, dated 2013)

What was measured:
[1] = test system: TNFα release from LPS activated THP-1 cells or PBMC's; experiment: p38 Functional Assay (TNFα release after LPS); type: cell-based; settings: Homo sapiens, 1 h pre-treatment, 0.3% DMSO, read-out: EC50 (inhibition of TNFα release)
Method: Inhibition of cellular p38 depresses the release of TNFα, a functional response which is quantified by measurement of the amount of TNFα in the supernatants of LPS activated THP-1 cells (an immortalised monocytic cell line) or peripheral blood mononuclear cells (PBMC's) isolated from freshly drawn human blood.
Cells seeded in 96 well plates are pre-treated by the addition of p38 inhibitors for 1 h followed by addition of lipopolysaccharide (LPS) to activate cytokine production and release. The amount of TNFα released into the cell supernatants is quantified using an R&D Systems enzyme linked immunosorbant assay (ELISA) kit (product DY210) following the manufacturers instructions.
Compounds are diluted in DMSO prior to addition, the final DMSO concentration in the assay being 0.3%. The EC50 is defined as the concentration at which a given compound achieves 50% inhibition of the control.

p38α = target: T1, p38α (Homo sapiens, UniProt Q16539); experiment: p38 Kinase Assay (ATF-2 phosphorylation ELISA); type: biochemical; settings: 2 h pre-incubation, ATP 250 μM, 1% DMSO; read-out: p38α inhibition (IC50 values)
T1 construct: purchased Calbiochem 559324; host or cells: E. coli
T1 sequence (Q16539 whole entry): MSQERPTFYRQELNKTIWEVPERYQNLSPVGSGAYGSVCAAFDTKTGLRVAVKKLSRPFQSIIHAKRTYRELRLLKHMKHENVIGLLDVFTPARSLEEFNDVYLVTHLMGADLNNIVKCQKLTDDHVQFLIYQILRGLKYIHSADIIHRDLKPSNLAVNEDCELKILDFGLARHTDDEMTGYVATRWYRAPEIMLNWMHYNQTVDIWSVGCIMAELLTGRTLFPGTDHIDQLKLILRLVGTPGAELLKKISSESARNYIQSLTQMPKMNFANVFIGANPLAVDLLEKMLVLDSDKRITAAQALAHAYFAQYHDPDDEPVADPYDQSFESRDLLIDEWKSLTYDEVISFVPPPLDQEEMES
Method: Human recombinant p38 enzyme expressed in E. coli and activated by incubation with MKK6 enzyme (Calbiochem #559324) is used as source of enzyme activity.
The assay is carried in high binding, clear, flat bottom 96 well assay plates which have been coated with recombinant ATF-2 (Biosource #PHF0043). Test compounds are incubated with p38 kinase for 2 h prior to initiating the kinase assay by the addition of ATP to obtain an assay concentration of 250 μM. Phosphorylation of ATF-2 is detected and quantified using an ELISA. This consists of sequential incubation in the presence of anti-phospho-ATF2, biotinylated anti-IgG and streptavidin-HRP. Incubation with an HRP chromogenic substrate (TMB) results in absorbance that is proportional to the amount of phosphorylated substrate produced. Absorbance is detected using a multiwell plate reader.
Compounds are diluted in DMSO prior to addition to assay buffer, the final DMSO concentration in the assay being 1%.
The IC50 is defined as the concentration at which a given compound achieves 50% inhibition of control.

O=C(NCC1CC1)c1cccc(Sc2ccc3nnc(-c4cccc(OCCN5CCOCC5)c4)n3c2)c1 [Example 1, N-Cyclopropylmethyl-3-{3-[3-(2-morpholin-4-yl-ethoxy)-phenyl]-[1,2,4]triazolo[4,3-a]pyridin-6-ylsulfanyl}-benzamide]
EC50 [1]: 500 to 7000 nM
IC50 (p38α): 500 to 2000 nM

O=C(Nc1cccc(N2CCOCC2)c1)c1cccc(Sc2ccc3nnc(-c4cccc(OCCN5CCOCC5)c4)n3c2)c1 [Example 2]
EC50 [1]: 100 to 500 nM
IC50 (p38α): 100 to 500 nM

O=C(Nc1ccnc(N2CCOCC2)c1)c1cccc(Sc2ccc3nnc(-c4cccc(OCCN5CCOCC5)c4)n3c2)c1 [Example 3]
EC50 [1]: 10 to 100 nM
IC50 (p38α): 100 to 500 nM

Cc1ccc(-n2nc(C(C)(C)C)cc2NC(=O)Cc2ccc(Sc3ccc4nnc(C(C)C)n4c3)cc2)cc1 [Example 6]
EC50 [1]: 10 to 100 nM
IC50 (p38α): < 10 nM

Cc1ccc(-n2nc(C(C)(C)C)cc2NC(=O)Cc2ccc(Sc3ccc4nnc(-c5cccc(OCc6ccccc6)c5)n4c3)cc2)cc1 [Example 8]
EC50 [1]: 100 to 500 nM
IC50 (p38α): 10 to 100 nM

Cc1ccc(-n2nc(C(C)(C)C)cc2NC(=O)Nc2ccc(Sc3ccc4nnc(-c5cccc(OCc6ccccc6)c5)n4c3)cc2)cc1 [Example 11]
EC50 [1]: 100 to 500 nM
IC50 (p38α): 500 to 2000 nM

Cc1ccc(-n2nc(C(C)(C)C)cc2NC(=O)Nc2ccc(Sc3ccc4nnc(-c5cccc(OCCN6CCOCC6)c5)n4c3)nc2)cc1 [Example 12, 1-(5-tert-Butyl-2-p-tolyl-2H-pyrazol-3-yl)-3-(6-{3-[3-(2-morpholin-4-yl-ethoxy)-phenyl]-[1,2,4]triazolo[4,3-a]pyridin-6-ylsulfanyl}-pyridin-3-yl)-urea]
EC50 [1]: 10 to 100 nM
IC50 (p38α): 10 to 100 nM

Cc1ccc(-n2nc(C(C)(C)C)cc2NC(=O)Nc2ccc(Sc3ccc4nnc(-c5cccc(OCCN6CCOCC6)c5)n4c3)cn2)cc1 [Example 13, 1-(5-tert-Butyl-2-p-tolyl-2H-pyrazol-3-yl)-3-(5-{3-[3-(2-morpholin-4-yl-ethoxy)-phenyl]-[1,2,4]triazolo[4,3-a]pyridin-6-ylsulfanyl}-pyridin-2-yl)-urea]
EC50 [1]: 10 to 100 nM
IC50 (p38α): 100 to 500 nM

Cc1ccc(-n2nc(C(C)(C)C)cc2NC(=O)N[C@H]2CC[C@H](Oc3ccc4nnc(-c5cccc(OCCN6CCOCC6)c5)n4c3)CC2)cc1 [Example 14, 1-(5-tert-Butyl-2-p-tolyl-2H-pyrazol-3-yl)-3-(trans-4-{3-[3-(2-morpholin-4-yl-ethoxy)-phenyl]-[1,2,4]triazolo[4,3-a]pyridin-6-yloxy}-cyclohexyl)-urea]
EC50 [1]: 10 to 100 nM
IC50 (p38α): 10 to 100 nM

Cc1ccc(-n2nc(C(C)(C)C)cc2NC(=O)N[C@H]2CC[C@@H](Oc3ccc4nnc(-c5cccc(OCCN6CCOCC6)c5)n4c3)CC2)cc1 [Example 15]
EC50 [1]: 500 to 7000 nM
IC50 (p38α): 100 to 500 nM

CC(C)(C)c1cc(NC(=O)N[C@H]2CC[C@H](Oc3ccc4nnc(-c5cccc(OCCN6CCOCC6)c5)n4c3)CC2)n(-c2ccccc2)n1 [Example 16]
EC50 [1]: 500 to 7000 nM
IC50 (p38α): 10 to 100 nM

Cc1ccc(-n2nc(C(C)(C)C)cc2NC(=O)CN2CCC(Oc3ccc4nnc(-c5cccc(OCCN6CCOCC6)c5)n4c3)CC2)cc1 [Example 17, N-(5-tert-Butyl-2-p-tolyl-2H-pyrazol-3-yl)-2-(4-{3-[3-(2-morpholin-4-yl-ethoxy)-phenyl]-[1,2,4]triazolo[4,3-a]pyridin-6-yloxy}-piperidin-1-yl)-acetamide]
EC50 [1]: 500 to 7000 nM
IC50 (p38α): 500 to 2000 nM

Cc1ccc(-n2nc(C(C)(C)C)cc2NC(=O)Cc2ccc(Sc3ccc4nnc(-c5cccc(O)c5)n4c3)cc2)cc1 [Example 18, N-(5-tert-Butyl-2-p-tolyl-2H-pyrazol-3-yl)-2-{4-[3-(3-hydroxy-phenyl)-[1,2,4]triazolo[4,3-a]pyridin-6-ylsulfanyl]-phenyl}-acetamide]
EC50 [1]: 10 to 100 nM
IC50 (p38α): < 10 nM

CC(C)c1nnc2ccc(Sc3ccc(CC(=O)Nc4cc(C(C)(C)C)nn4-c4ccc(OCCN5CCOCC5)cc4)cc3)cn12 [Example 19, N-{5-tert-Butyl-2-[4-(2-morpholin-4-yl-ethoxy)-phenyl]-2H-pyrazol-3-yl}-2-[4-(3-isopropyl-[1,2,4]triazolo[4,3-a]pyridin-6-ylsulfanyl)-phenyl]-acetamide]
EC50 [1]: 500 to 7000 nM
IC50 (p38α): 500 to 2000 nM

CC(C)c1nnc2ccc(Sc3ccc(CC(=O)Nc4cc(C(C)(C)C)nn4-c4ccc(O)cc4)cc3)cn12 [Example 20, N-[5-tert-Butyl-2-(4-hydroxy-phenyl)-2H-pyrazol-3-yl]-2-[4-(3-isopropyl-[1,2,4]triazolo[4,3-a]pyridin-6-ylsulfanyl)-phenyl]-acetamide]
EC50 [1]: 10 to 100 nM
IC50 (p38α): 10 to 100 nM

Cc1ccc(-n2nc(C(C)(C)C)cc2NC(=O)N[C@H]2CC[C@H](Oc3ccc4nnc(C(C)C)n4c3)CC2)cc1 [Example 21, 1-(5-tert-Butyl-2-p-tolyl-2H-pyrazol-3-yl)-3-[4-(3-isopropyl-[1,2,4]triazolo[4,3-a]pyridin-6-yloxy)-cyclohexyl]-urea]
EC50 [1]: 10 to 100 nM
IC50 (p38α): 10 to 100 nM

Cc1ccc(-n2nc(C(C)(C)C)cc2NC(=O)C[C@H]2CC[C@H](Oc3ccc4nnc(C(C)C)n4c3)CC2)cc1 [Example 22, N-(5-tert-Butyl-2-p-tolyl-2H-pyrazol-3-yl)-2-[4-(3-isopropyl-[1,2,4]-triazolo[4,3-a]pyridin-6-yloxy)-cyclohexyl]-acetamide]
EC50 [1]: 500 to 7000 nM
IC50 (p38α): 500 to 2000 nM

Cc1ccc(-n2nc(C(C)(C)C)cc2NC(=O)Cc2ccc(Oc3ccc4nnc(C(C)C)n4c3)cc2)cc1 [Example 23, N-(5-tert-Butyl-2-p-tolyl-2H-pyrazol-3-yl)-2-[4-(3-isopropyl-[1,2,4]triazolo[4,3-a]pyridin-6-yloxy)-phenyl]-acetamide]
EC50 [1]: < 10 nM
IC50 (p38α): < 10 nM

Cc1ccc(-n2nc(C(C)(C)C)cc2NC(=O)C(C)c2ccc(Sc3ccc4nnc(C(C)C)n4c3)cc2)cc1 (centres unmarked) [Example 24, N-(5-tert-Butyl-2-p-tolyl-2H-pyrazol-3-yl)-2-[4-(3-isopropyl-[1,2,4]triazolo[4,3-a]pyridin-6-ylsulfanyl)-phenyl]-propionamide]
IC50 (p38α): 100 to 500 nM

Cc1ccc(-n2nc(C(C)(C)C)cc2NC(=O)N[C@H]2CC[C@H](Oc3ccc4nnc(C5CCCC5)n4c3)CC2)cc1 [Example 25, 1-(5-tert-Butyl-2-p-tolyl-2H-pyrazol-3-yl)-3-[4-(3-cyclopentyl-[1,2,4]triazolo[4,3-a]pyridin-6-yloxy)-cyclohexyl]-urea]
IC50 (p38α): < 10 nM

CC(C)c1nnc2ccc(Sc3ccc(CC(=O)Nc4cc(C(C)(C)C)nn4-c4cccc(OCCc5ccncc5)c4)cc3)cn12 [Example 27, N-{5-tert-Butyl-2-[3-(2-pyridin-4-yl-ethoxy)-phenyl]-2H-pyrazol-3-yl}-2-[4-(3-isopropyl-[1,2,4]triazolo[4,3-a]pyridin-6-ylsulfanyl)-phenyl]-acetamide]
IC50 (p38α): 10 to 100 nM

Cc1ccc(-n2nc(C(C)(C)C)cc2NC(=O)c2cccc(Sc3ccc4nnc(C(C)C)n4c3)c2)cc1 [Example 28]
IC50 (p38α): 10 to 100 nM

Cc1ccc(-n2nc(C(C)(C)C)cc2NC(=O)NC2CCC(Oc3ccc4nnc(-c5ccccn5)n4c3)CC2)cc1 (centres unmarked) [Example 29, 1-(5-tert-Butyl-2-p-tolyl-2H-pyrazol-3-yl)-3-[4-(3-pyridin-2-yl-[1,2,4]triazolo[4,3-a]pyridin-6-yloxy)-cyclohexyl]-urea]
IC50 (p38α): 10 to 100 nM
